{"source": "patent US6350769B1", "about": "(The Regents of the University of California, priority 1999, dated 2002)", "key": {"lymph node T cell": {"system": "lymph node T cell", "assay": "antigen-primed lymph node T cell proliferative recall response (3H-thymidine incorporation)", "assay_type": "cell-based, NOD, Balb/c and AKR mice", "conditions": "for immuno-inhibitory effect of GABA on co-incubation with the compound: different (also high) concentrations of GABA, GADp35; for immuno-inhibitory effect of GABA on co-incubation with the compound / effect on GABA-mediated inhibition of T cell proliferation: co-incubation; for effect on GABA-mediated inhibition of T cell proliferation: 1 μM-500 μM", "experimental": "NOD, Balb/c and AKR mice were immunized with an immunogenic foreign (HEL) or self (GAD) peptide in 50% CFA. […] Groups of 5 mice were tested in two independent experiments.\nLymph node mononuclear cells from GADp35 primed NOD mice were pretreated with different concentrations of muscimol or baclofen in vitro, and then challenged with 7 μM GADp35 to stimulate antigen specific T cell proliferation. The data are presented as the per cent ^3H-thymidine incorporation relative to control peptid-estimulated cells without muscimol or baclofen treatment. Lymph node mononuclear cells in medium alone served as negative controls. […] Groups of 5-6 mice were tested in two independent experiments.\nGroups of 5 mice were tested in three independent experiments.\nLymph node mononuclear cells from NOD mice which were immunized with GADp35 were cultured with bicuculline, RU5135 or picrotoxin. […] The data are expressed as the per cent ^3H-thymidine incorporation relative to control antigen-stimulated cells without any drug treatment. […] Groups of 5-6 mice were tested in three independent experiments.\nThree strains of mice with different MHC class II alleles were immunized with an immunogenic peptide from hen egg lysozyme (HEL). […] Mice were injected with 20 nM peptide in 50% complete Freund's adjuvant (CFA, Gibco) in their hind food-pad.\nGAD peptides were selected from an overlapping set of peptides which span the GAD molecule (Atkinson et al. (1994) J. Clin. Invest. 94:2125-2129). GAD65 peptide 35 (GADp35) contains a self-antigen determinant for NOD (H-2^NOD; Taconic Farms) and BALB/c (H-2^d) mice (Jackson Laboratory) and GAD peptide 25 (GADp25) contains a self-antigen determinant for AKR (H-2^k) mice (Jackson Laboratory; Kaufman et al. (1993) Nature 366:69-72). Following immunization with 20 nM of immunogenic GAD peptide in 50% complete Freund's adjuvant (CFA, Gibco), T cell proliferation was assayed as described above."}, "[1]": {"system": "lymph node mononuclear cells from GADp35 immunized NOD mice", "assay": "IL-2 production by antigen stimulated T cells (CTLL proliferation readout)", "assay_type": "cell-based", "conditions": "GADp35 at 2, 7 and 20 micromolar; 36 hours; different concentrations of GABA", "experimental": "The IL-2 activity in supernatant was determined by IL-2-dependent CTLL proliferation. The data are expressed as IL-2 units/ml±SD.\n(§1) Mice (6-8 weeks in age) were injected with 20 nM GADp35 peptide in 50% complete Freund's adjuvant (CFA, Gibco) in their hind food-pad. […] The supernatant of the cultured cells was harvested and the activity of IL-2 was measured using the IL-2-dependent cell line CTLL-2. Recombinant mouse IL-2 (Genzyme) was used as a standard."}, "[2]": {"system": "mononuclear splenic cells", "assay": "T cell response to PMA and ionomycin", "assay_type": "cell-based, mice", "conditions": "10 μM-10 mM"}, "splenic T cell": {"system": "splenic T cell", "assay": "anti-CD3 stimulated splenic T cell proliferation (3H-thymidine incorporation)", "assay_type": "cell-based, Balb/c mice", "experimental": "During the last 8 hours of incubation, ^3H-thymidine (1 μCi/well) was added into each well to determine T cell proliferation. […] The background level of ^3H-thymidine incorporation in medium alone was 1,965-2,400 cpm. Groups of 5-6 mice were tested in two independent experiments.\nThe data are presented as the mean percent ^3H-thymidine incorporation relative to the positive control from groups of 5-6 mice which were tested in 2-3 independent experiments."}, "NOD mice": {"system": "NOD mice", "assay": "antigen-primed DTH response (KLH footpad swelling)", "assay_type": "in vivo", "experimental": "The next day, the mice were immunized with KLH in 50% CFA at the base of their tail. One week later, the mice were challenged with KLH in PBS in their right footpad, while the left footpad received ovalbumin in PBS as a control. Footpad swelling was expressed as the average size increase of the KLH injected footpad compared to the control footpad±SD (n=5 mice/group, *p<0.005, **p<0.002, ***p<0.001).\nThe next day, the mice were immunized with 100 μg keyhole limpet hemocyanin (KLH, Sigma), a prototypic foreign antigen, in 50% CFA at the base of their tail. One week later, the mice were challenged with KLH (100 μg in 25 μl PBS) in their right footpad, while the left footpad received ovalbumin (100 μg in […] PBS) as a control. Both hind feet were measured before injection and at 24, 48, 72 and 96 hrs post injection using a monostat caliper. Footpad swelling was expressed as the average size increase (in millimeters) of the KLH-injected footpad compared to the control ovalbumin-injected footpad of each animal. The measurements were conducted in a blinded fashion on coded animals."}, "NOD-scid mice": {"system": "NOD-scid mice", "assay": "adoptive transfer of IDDM to NOD-scid mice", "assay_type": "in vivo", "conditions": "600 μg/day", "excerpt": "Ten to twenty million splenocytes from NOD mice with recent onset of IDDM were intravenously injected into recipient 6-week-old mice. […] (n=12 for both groups).\nA NOD strain congenic for the severe combined immunodeficiency (scid) mutation developed to study diabetogenesis in NOD mice was used in the adoptive transfer experiment. Neither insulitis nor diabetes is observed in the NOD-scid mice because they lack functional lymphocytes. This ensured that the T cells responsible for diabetes in recipient NOD-scid mice were derived from the diabetic donor NOD mice. Only female NOD mice were used since they incur a higher incidence of IDDM than males.\nThe control mice received a placebo pellet instead the GABA pellet. The mice were monitored for diabetes onset by testing their urine glucose levels with Tes-tape and blood glucose levels with a glucometer. The onset of IDDM is defined as two consecutive blood glucose readings of over 300 mg/dl."}, "CTLL-2 cells": {"system": "CTLL-2 cells", "assay": "control CTLL-2 cell response to recombinant murine IL-2", "assay_type": "cell-based, mouse", "conditions": "10 μM-10 mM", "experimental": "as §1"}, "[3]": {"conditions": "NOD, Balb/c and AKR mice, 7 μM peptide, different concentrations of GABA"}, "[4]": {"conditions": "21-day slow release GABA pellet"}}}
{"molecule": "NCCC(=O)O", "note": "[β-alanine]", "values": [{"measurement": "effect on T cell proliferative responses, alone or co-incubated with GABA", "setting": "lymph node T cell; 10 μM-10 mM", "result": "little effect"}]}
{"molecule": "NCC(CC(=O)O)c1ccc(Cl)cc1", "note": "(centres unmarked) [baclofen]", "values": [{"measurement": "effect on T cell proliferation", "setting": "lymph node T cell; 10 μM-10 mM", "result": "little effect"}, {"measurement": "interference with the immuno-suppressive action of muscimol", "setting": "lymph node T cell; 10 μM-10 mM, with muscimol", "result": "did not interfere"}]}
{"molecule": "picrotoxin", "values": [{"measurement": "immuno-inhibitory effect of GABA on co-incubation with the compound", "setting": "lymph node T cell", "result": "almost abolished"}]}
{"molecule": "C[C@]12CC[C@@H](O)C[C@H]1CC[C@@H]1[C@@H]2C(=O)C[C@]2(C)N=C(N)C[C@@H]12", "note": "[RU5315]", "values": [{"measurement": "immuno-inhibitory effect of GABA on co-incubation with the compound", "setting": "lymph node T cell", "result": "greatly reduced"}]}
{"molecule": "CCCC(C)C1(CC)C(=O)NC(=O)NC1=O", "note": "(centres unmarked) [pentobarbital]", "values": [{"measurement": "effect on GABA inhibition of T cell responses", "setting": "lymph node T cell; 3 μM with different concentrations of GABA, 7 μM GADp35, 96 hours", "result": "potentiated the actions of GABA"}, {"measurement": "impact of compound without GABA on antigen-primed T cell proliferation", "setting": "lymph node T cell; 3 μM, without GABA", "result": "little impact"}]}
{"molecule": "O=C(O)C1CCCNC1", "note": "(centres unmarked) [nipecotic acid]", "values": [{"measurement": "effect on GABA-mediated inhibition of T cell proliferation", "setting": "lymph node T cell", "result": "did not significantly affect"}]}
{"molecule": "N[C@@H](CCC(=O)O)C(=O)O", "note": "[glutamic acid]", "values": [{"measurement": "effect on T cell proliferative responses, alone or co-incubated with GABA", "setting": "lymph node T cell; 10 μM-10 mM", "result": "little effect"}]}
{"molecule": "NCCCC(=O)O", "note": "[GABA, γ-Aminobutyric acid]", "values": [{"measurement": "antigen-induced IL-2 secretion", "setting": "[1]", "result": "reduced in a dose-dependent manner"}, {"measurement": "effect on T cell response to PMA and ionomycin", "setting": "[2]", "result": "did not significantly affect"}, {"measurement": "T cell recall proliferation to foreign antigen (HEL peptides)", "setting": "lymph node T cell; [3]", "result": "inhibit T cell proliferation to the immunogens in a dose-dependent manner"}, {"measurement": "T cell recall proliferation to self-antigen (GAD peptides)", "setting": "lymph node T cell; [3]", "result": "inhibit proliferative T cell responses to the injected antigen in all three strains of mice in a dose-dependent manner"}, {"measurement": "impact on T cell survival", "setting": "splenic T cell; in vitro culture", "result": "little impact on T cell survival"}, {"measurement": "T cell proliferation with the compound itself (without anti-CD3)", "setting": "splenic T cell; without anti-CD3", "result": "failed to stimulate T cell proliferation"}, {"measurement": "signs of toxicity", "setting": "NOD mice; mice implanted with GABA-releasing pellets (600 μg GABA/day)", "result": "no obvious signs of toxicity"}, {"measurement": "less footpad swelling in response to KLH than placebo-treated mice", "setting": "NOD mice; pellet releasing 600 μg/day GABA, under the skin, 24-72 hour response period, p<0.005", "result": "30-50%"}, {"measurement": "diabetes incidence after adoptive transfer", "setting": "NOD-scid mice; [4]", "result": "significantly reduced diabetes incidence"}, {"measurement": "onset of IDDM beginning at", "setting": "NOD-scid mice; [4]", "result": 4, "unit": "weeks"}, {"measurement": "onset of IDDM in mice that developed it", "setting": "NOD-scid mice; [4]", "result": "delayed onset"}, {"measurement": "onset of IDDM beginning at", "setting": "NOD-scid mice; 60-day slow release GABA pellet", "result": 7, "unit": "weeks"}, {"measurement": "CTLL-2 cell response to recombinant murine IL-2 on addition of compound", "setting": "CTLL-2 cells", "result": "unaffected"}]}
{"molecule": "C=CC(N)CCC(=O)O", "note": "(centres unmarked) [γ-vinyl-GABA]", "values": [{"measurement": "effect on GABA-mediated inhibition of T cell proliferation", "setting": "lymph node T cell", "result": "did not significantly affect"}]}
{"molecule": "NCc1cc(=O)[nH]o1", "note": "[muscimol]", "values": [{"measurement": "reduction of antigen primed T cell responses", "setting": "lymph node T cell; 300 μM, GADp35 primed NOD mice", "result": "approximately 40%"}, {"measurement": "antigen-induced T cell proliferation", "setting": "lymph node T cell; different concentrations, 7 μM GADp35", "result": "inhibit in a dose-dependent manner"}, {"measurement": "anti-CD3 induced T cell proliferation", "setting": "splenic T cell; different concentrations", "result": "inhibit in a dose-dependent manner"}]}
